ChEMBL document CHEMBL5223147, “Discovery of a potent and subtype-selective TYK2 degrader based on an allosteric TYK2 inhibitor” (Bioorg Med Chem Lett, 2023)
Active and inactive are the calls of the source. The rule behind the calls is not given here.

Legend:
Type in all cases: cell-based
[1] = target: T1, Non-receptor tyrosine-protein kinase TYK2 (Homo sapiens, UniProt P29597); assay: Induction of TYK2 degradation in human Jurkat cells at 1 uM incubated for 24 hrs in presence of 6-(5-fluoropyridin-2-ylamino)-4-(2-methoxy-3-(methylcarbamoyl)phenylamino)-N-methylnicotinamide by Western blot analysis
[2] = target: T1, Non-receptor tyrosine-protein kinase TYK2; assay: Induction of TYK2 degradation in human Jurkat cells at 10 uM incubated for 24 hrs by Western blot analysis
[3] = target: Tyrosine-protein kinase JAK2 (Homo sapiens) (UniProt O60674); assay: Induction of JAK2 degradation in human Jurkat cells at 1 uM incubated for 6 hrs by Western blot analysis
[4] = target: T1, Non-receptor tyrosine-protein kinase TYK2; assay: Induction of TYK2 degradation in human Jurkat cells at 100 nM incubated for 24 hrs relative to control
[5] = target: T2, Tyrosine-protein kinase JAK1 (Homo sapiens, UniProt P23458); assay: Induction of JAK1 degradation in human Jurkat cells incubated for 24 hrs
[6] = target: T2, Tyrosine-protein kinase JAK1; assay: Induction of JAK1 degradation in human Jurkat cells at 10 uM incubated for 24 hrs relative to control
[7] = target: T1, Non-receptor tyrosine-protein kinase TYK2; assay: Induction of TYK2 degradation in human Jurkat cells incubated for 24 hrs
[8] = target: T2, Tyrosine-protein kinase JAK1; assay: Induction of JAK1 degradation in human Jurkat cells at 1 uM incubated for 24 hrs relative to control
[9] = target: T1, Non-receptor tyrosine-protein kinase TYK2; assay: Induction of TYK2 degradation in human Jurkat cells at 1 uM incubated for 24 hrs relative to control
[10] = target: T2, Tyrosine-protein kinase JAK1; assay: Induction of JAK1 degradation in human Jurkat cells at 1 uM incubated for 6 hrs by Western blot analysis
[11] = target: T3, Tyrosine-protein kinase JAK3 (Homo sapiens) (UniProt P52333); assay: Induction of JAK3 degradation in human Jurkat cells at 1 uM incubated for 6 hrs by Western blot analysis
T3 sequence (whole entry): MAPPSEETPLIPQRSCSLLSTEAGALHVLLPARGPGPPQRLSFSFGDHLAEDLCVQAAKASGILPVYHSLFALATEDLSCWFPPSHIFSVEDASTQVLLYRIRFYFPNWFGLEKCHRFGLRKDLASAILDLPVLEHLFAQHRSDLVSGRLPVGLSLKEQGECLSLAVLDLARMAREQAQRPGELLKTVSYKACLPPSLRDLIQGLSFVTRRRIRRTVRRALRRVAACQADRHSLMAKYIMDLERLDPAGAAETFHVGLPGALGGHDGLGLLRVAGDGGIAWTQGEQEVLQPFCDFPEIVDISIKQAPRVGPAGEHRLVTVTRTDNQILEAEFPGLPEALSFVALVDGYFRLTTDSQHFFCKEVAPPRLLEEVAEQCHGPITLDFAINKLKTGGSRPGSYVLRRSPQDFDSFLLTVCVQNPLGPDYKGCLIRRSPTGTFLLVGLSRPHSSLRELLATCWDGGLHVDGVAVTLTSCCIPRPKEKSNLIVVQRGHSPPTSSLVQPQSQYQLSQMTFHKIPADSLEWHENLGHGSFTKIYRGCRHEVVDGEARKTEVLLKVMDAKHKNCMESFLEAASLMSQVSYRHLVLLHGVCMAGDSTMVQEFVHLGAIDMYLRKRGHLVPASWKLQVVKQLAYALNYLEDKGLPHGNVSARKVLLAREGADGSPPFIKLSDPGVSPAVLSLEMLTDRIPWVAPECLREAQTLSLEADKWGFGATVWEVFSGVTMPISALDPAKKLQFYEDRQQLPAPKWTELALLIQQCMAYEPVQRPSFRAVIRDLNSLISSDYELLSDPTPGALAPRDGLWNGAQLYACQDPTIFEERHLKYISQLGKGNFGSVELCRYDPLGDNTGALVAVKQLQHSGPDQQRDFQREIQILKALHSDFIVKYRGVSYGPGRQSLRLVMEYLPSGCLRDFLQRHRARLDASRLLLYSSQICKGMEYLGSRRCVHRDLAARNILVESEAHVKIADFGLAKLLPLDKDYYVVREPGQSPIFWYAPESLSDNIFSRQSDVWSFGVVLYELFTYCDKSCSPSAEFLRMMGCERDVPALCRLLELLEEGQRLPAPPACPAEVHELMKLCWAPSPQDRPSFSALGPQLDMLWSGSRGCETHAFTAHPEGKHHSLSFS

[12] = target: T1, Non-receptor tyrosine-protein kinase TYK2; assay: Induction of TYK2 degradation in human Jurkat cells at 1 uM incubated for 6 hrs by Western blot analysis
[13] = target: T1, Non-receptor tyrosine-protein kinase TYK2; assay: Induction of TYK2 degradation in human Jurkat cells incubated for 24 hrs by Western blot analysis
[14] = target: T1, Non-receptor tyrosine-protein kinase TYK2; assay: Induction of TYK2 degradation in human Jurkat cells at 1 uM by Western blot analysis; settings: time 3-24 hrs, TDE = time-dependent effect
[15] = target: T1, Non-receptor tyrosine-protein kinase TYK2; assay: Induction of TYK2 degradation in human Jurkat cells at 1 to 10 uM pretreated with MG-132 followed by compound treatment for 24 hrs by Western blot analysis; settings: dose 1-10 µM
[16] = target: T1, Non-receptor tyrosine-protein kinase TYK2; assay: Induction of TYK2 degradation in human Jurkat cells assessed as reduction in TYK2 mRNA expression level up to 10 uM incubated for 6 to 24 hrs by quantitative-PCR analysis; settings: time 6-24 hrs
[17] = target: T1, Non-receptor tyrosine-protein kinase TYK2; assay: Induction of TYK2 degradation in human Jurkat cells at 10 uM incubated for 24 hrs by Western blot analysis relative to control

Chain of Tyrosine-protein kinase JAK2 (Homo sapiens) (O60674 whole entry): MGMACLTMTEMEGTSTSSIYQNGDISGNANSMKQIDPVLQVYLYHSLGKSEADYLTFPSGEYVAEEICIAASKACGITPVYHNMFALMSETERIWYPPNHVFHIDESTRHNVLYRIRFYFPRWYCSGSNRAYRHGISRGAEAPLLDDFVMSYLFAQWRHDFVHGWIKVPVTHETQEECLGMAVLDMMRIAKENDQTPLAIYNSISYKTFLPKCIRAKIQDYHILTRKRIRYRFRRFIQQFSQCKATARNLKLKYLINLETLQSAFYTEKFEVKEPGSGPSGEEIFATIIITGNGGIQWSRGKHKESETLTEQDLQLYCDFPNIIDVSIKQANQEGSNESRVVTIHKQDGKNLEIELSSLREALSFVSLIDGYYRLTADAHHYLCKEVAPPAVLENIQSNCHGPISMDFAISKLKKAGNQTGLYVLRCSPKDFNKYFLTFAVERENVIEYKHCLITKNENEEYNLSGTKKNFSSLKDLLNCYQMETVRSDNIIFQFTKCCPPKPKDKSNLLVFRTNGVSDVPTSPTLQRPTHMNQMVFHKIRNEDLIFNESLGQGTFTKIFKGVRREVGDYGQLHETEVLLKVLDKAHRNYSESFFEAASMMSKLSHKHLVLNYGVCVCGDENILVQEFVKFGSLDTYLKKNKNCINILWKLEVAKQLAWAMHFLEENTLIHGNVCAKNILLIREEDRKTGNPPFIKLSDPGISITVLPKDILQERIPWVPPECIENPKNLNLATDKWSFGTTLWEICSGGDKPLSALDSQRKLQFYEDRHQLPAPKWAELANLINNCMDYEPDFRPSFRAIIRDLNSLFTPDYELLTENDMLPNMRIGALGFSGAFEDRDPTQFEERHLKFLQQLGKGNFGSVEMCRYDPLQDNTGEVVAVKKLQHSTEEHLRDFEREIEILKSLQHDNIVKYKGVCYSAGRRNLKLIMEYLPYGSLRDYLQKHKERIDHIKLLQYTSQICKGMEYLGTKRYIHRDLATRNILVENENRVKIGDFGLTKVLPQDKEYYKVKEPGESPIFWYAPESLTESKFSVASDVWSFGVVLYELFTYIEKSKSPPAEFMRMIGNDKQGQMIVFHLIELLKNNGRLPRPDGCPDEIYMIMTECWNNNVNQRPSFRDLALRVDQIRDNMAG
T2 sequence (P23458 whole entry): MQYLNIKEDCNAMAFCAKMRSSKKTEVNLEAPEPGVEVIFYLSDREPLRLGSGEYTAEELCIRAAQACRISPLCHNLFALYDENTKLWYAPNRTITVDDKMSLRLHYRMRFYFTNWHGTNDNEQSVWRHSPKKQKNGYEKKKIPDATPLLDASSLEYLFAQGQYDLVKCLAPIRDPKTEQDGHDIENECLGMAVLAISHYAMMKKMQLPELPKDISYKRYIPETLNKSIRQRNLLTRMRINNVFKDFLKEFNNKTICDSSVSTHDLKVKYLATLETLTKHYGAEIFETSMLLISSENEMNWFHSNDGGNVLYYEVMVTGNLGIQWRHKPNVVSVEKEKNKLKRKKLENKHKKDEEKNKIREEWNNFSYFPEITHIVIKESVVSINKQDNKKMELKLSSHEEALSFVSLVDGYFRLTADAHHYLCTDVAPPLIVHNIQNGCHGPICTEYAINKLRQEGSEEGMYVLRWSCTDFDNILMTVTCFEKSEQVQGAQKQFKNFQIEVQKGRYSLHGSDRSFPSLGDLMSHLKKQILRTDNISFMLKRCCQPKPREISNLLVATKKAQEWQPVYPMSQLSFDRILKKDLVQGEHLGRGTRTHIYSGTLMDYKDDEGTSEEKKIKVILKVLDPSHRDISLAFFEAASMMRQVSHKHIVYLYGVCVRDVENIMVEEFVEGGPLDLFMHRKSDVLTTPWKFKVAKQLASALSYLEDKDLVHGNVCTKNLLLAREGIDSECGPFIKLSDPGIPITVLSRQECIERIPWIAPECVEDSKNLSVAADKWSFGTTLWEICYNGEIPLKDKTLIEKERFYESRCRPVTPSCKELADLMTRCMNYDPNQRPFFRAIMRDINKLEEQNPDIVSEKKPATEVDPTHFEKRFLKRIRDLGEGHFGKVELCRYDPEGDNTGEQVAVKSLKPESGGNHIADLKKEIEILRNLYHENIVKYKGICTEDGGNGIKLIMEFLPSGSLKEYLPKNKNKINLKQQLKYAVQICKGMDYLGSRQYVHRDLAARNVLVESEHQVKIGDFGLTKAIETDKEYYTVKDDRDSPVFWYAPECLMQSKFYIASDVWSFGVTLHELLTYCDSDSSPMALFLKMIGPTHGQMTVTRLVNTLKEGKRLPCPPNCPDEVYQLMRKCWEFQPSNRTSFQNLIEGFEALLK
T1 sequence (P29597 whole entry): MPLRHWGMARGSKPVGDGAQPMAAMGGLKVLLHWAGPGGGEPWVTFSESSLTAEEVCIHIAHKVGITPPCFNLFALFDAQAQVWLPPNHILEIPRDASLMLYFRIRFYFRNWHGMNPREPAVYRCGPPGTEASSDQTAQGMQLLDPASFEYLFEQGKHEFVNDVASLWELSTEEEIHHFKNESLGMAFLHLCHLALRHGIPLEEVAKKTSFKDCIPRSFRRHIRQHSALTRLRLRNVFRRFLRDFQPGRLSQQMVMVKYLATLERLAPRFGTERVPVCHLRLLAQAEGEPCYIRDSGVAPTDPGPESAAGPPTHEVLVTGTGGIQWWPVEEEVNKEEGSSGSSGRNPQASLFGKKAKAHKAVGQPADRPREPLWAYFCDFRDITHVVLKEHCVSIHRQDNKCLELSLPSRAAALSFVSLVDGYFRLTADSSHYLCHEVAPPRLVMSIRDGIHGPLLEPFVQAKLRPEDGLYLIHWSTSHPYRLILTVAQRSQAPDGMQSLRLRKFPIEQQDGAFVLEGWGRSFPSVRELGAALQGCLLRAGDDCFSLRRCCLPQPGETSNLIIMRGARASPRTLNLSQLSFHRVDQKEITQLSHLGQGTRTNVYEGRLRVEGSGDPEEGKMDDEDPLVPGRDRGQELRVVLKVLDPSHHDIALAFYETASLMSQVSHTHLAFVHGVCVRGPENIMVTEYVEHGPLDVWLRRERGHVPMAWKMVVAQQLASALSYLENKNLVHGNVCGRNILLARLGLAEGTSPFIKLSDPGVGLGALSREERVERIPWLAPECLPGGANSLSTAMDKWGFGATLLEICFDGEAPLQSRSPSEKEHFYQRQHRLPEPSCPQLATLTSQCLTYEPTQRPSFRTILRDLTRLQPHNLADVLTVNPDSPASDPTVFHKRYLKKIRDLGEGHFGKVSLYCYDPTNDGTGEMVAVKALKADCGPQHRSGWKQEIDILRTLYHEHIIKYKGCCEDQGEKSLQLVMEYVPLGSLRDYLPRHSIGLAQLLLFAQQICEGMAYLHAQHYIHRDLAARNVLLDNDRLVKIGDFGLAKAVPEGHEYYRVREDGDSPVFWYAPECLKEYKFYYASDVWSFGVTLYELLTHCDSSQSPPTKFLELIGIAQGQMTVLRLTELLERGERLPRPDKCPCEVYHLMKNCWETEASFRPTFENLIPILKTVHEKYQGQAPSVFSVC

Activity [3]	Activity [10]	Activity [11]	SMILES	further results
inactive	inactive	inactive	CNC(=O)c1cnc(Nc2ccc(C(=O)NCCCCCCCCC(=O)N[C@H](C(=O)N3C[C@H](O)C[C@H]3C(=O)NCc3ccc(-c4scnc4C)cc3)C(C)(C)C)cn2)cc1Nc1cccc(C(=O)NC)c1OC	–
inactive	inactive	inactive	CNC(=O)c1cnc(Nc2ccc(C(=O)NCCCCCCCC(=O)N[C@H](C(=O)N3C[C@H](O)C[C@H]3C(=O)NCc3ccc(-c4scnc4C)cc3)C(C)(C)C)cn2)cc1Nc1cccc(C(=O)NC)c1OC	–
Active	Active	Active	CNC(=O)c1cnc(Nc2ccc(C(=O)NCCCC(=O)N[C@H](C(=O)N3C[C@H](O)C[C@H]3C(=O)NCc3ccc(-c4scnc4C)cc3)C(C)(C)C)cn2)cc1Nc1cccc(C(=O)NC)c1OC	–
inactive	inactive	inactive	CNC(=O)c1cnc(Nc2ccc(C(=O)NCCCCCC(=O)N[C@H](C(=O)N3C[C@H](O)C[C@H]3C(=O)NCc3ccc(-c4scnc4C)cc3)C(C)(C)C)cn2)cc1Nc1cccc(C(=O)NC)c1OC	–

Further lines, the molecule ahead of its results:

SMILES	Activity [3]	Activity [10]	Activity [11]	further results
Cc1ncsc1-c1ccc(CNC(=O)[C@@H]2C[C@@H](O)CN2C(=O)[C@@H](NC(=O)C2(C#N)CC2)C(C)(C)C)cc1	–	–	–	Activity [1]: inactive; Activity [2]: Active
CNC(=O)c1cnc(Nc2ccc(C(=O)NCCCCCCCCCC(=O)N[C@H](C(=O)N3C[C@H](O)C[C@H]3C(=O)NCc3ccc(-c4scnc4C)cc3)C(C)(C)C)cn2)cc1Nc1cccc(-c2ncn(C)n2)c1OC	Active	–	–	Emax [4]: 78%; DC50 [5]: ≥ 10000 nM; Emax [6]: 25%; DC50 [7]: 14 nM
CNC(=O)c1cccc(Nc2cc(Nc3ccc(C(=O)NCCCCCCCCCC(=O)N[C@H](C(=O)N4C[C@H](O)C[C@H]4C(=O)NCc4ccc(-c5scnc5C)cc4)C(C)(C)C)cn3)ncc2C(N)=O)c1OC	–	Active	–	Emax [8]: 49%; DC50 [5]: 1100 nM; Emax [9]: 85%; DC50 [7]: 23 nM
CNC(=O)c1cnc(Nc2ccc(C(=O)NCCCCCCCCCC(=O)N[C@H](C(=O)N3C[C@H](O)C[C@H]3C(=O)NCc3ccc(-c4scnc4C)cc3)C(C)(C)C)cn2)cc1Nc1cccc(C(=O)NC)c1OC	inactive	inactive	inactive	Activity [1]: Active; Activity [12]: Active; DC50 [13]: 230 nM; Activity [14]: Tde; Activity [15]: Active; Activity [16]: inactive; Emax [17]: 77%
CNC(=O)c1cnc(Nc2ccc(C(=O)NCCCCCCCCCCC(=O)N[C@H](C(=O)N3C[C@H](O)C[C@H]3C(=O)NCc3ccc(-c4scnc4C)cc3)C(C)(C)C)cn2)cc1Nc1cccc(C(=O)NC)c1OC	inactive	inactive	inactive	–
CNC(=O)c1cnc(Nc2ccc(C(=O)NCCCCCCCCCCCC(=O)N[C@H](C(=O)N3C[C@H](O)C[C@H]3C(=O)NCc3ccc(-c4scnc4C)cc3)C(C)(C)C)cn2)cc1Nc1cccc(C(=O)NC)c1OC	inactive	inactive	inactive	–
CNC(=O)c1cnc(Nc2ccc(F)cn2)cc1Nc1cccc(C(=O)NC)c1OC	–	–	–	Activity [2]: Active
